# Source: ChEMBL document CHEMBL1909046, “DrugMatrix in vitro pharmacology data”
# Experiments:
# [1] = target: Melanocortin receptor 3 (Homo sapiens, UniProt P41968); type: cell membranes, HEK293, Membrane; note: in other assays of this panel Not Active means under 50% inhibition at 10 µM
# [2] = DRUGMATRIX: Calcium Channel Type L, Dihydropyridine radioligand binding (ligand: [3H] Nitrendipine); type: cell membranes, Rattus norvegicus, Wistar, Cerebral cortex, Membrane; details: Not Active = under 50% inhibition at 10 µM
# [3] = DRUGMATRIX: Purinergic P2X radioligand binding (ligand: [3H] alpha, beta-Methylene-ATP); type: cell membranes, Oryctolagus cuniculus, New Zealand albino, Urinary bladder, Membrane; details: Not Active = under 50% inhibition at 10 µM
# [4] = target: Nitric oxide synthase 1 (Rattus norvegicus, UniProt P29476); type: tissue-based, Cerebellum; note: in other assays of this panel Not Active means under 50% inhibition at 10 µM
# Sequence of Nitric oxide synthase 1 (P29476 whole entry): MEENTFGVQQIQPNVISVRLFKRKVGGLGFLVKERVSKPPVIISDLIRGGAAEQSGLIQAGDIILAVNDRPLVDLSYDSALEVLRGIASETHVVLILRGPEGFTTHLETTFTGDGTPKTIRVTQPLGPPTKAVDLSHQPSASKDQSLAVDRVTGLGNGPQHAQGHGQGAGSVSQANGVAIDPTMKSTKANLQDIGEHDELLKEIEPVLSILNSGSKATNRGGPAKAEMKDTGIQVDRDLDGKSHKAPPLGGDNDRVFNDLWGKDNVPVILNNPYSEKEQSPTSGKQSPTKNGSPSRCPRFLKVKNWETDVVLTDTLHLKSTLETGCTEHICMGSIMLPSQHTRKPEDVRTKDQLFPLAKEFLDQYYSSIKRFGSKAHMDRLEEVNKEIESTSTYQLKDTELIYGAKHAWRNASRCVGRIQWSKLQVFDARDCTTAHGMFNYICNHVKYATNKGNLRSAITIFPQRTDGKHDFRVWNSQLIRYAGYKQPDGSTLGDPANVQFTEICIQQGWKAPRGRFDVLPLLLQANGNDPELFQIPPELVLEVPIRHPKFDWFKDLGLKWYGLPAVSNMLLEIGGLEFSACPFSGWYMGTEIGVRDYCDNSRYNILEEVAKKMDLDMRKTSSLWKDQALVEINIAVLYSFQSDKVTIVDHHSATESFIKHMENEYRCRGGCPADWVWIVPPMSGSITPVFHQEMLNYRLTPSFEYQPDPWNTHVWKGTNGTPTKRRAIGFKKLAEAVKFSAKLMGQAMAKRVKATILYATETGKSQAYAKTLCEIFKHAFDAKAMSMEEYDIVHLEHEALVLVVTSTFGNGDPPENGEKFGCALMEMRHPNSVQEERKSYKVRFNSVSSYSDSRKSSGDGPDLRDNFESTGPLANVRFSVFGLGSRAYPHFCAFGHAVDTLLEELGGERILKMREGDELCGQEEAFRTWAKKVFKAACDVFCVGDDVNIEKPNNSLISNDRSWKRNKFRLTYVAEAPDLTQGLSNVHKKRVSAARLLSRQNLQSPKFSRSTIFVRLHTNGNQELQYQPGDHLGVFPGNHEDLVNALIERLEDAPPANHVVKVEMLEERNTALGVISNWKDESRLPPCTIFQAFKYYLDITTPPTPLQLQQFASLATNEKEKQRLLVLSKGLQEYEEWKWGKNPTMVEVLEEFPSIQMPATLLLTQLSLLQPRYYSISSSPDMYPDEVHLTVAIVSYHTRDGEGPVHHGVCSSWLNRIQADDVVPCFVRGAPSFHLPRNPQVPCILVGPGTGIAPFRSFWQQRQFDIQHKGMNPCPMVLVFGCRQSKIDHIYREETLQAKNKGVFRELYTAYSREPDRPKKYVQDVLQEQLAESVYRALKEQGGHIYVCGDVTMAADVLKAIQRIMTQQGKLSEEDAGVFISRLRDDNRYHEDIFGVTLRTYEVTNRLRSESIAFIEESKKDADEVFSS
# [5] = target: Adenosine receptor A2a (Homo sapiens, UniProt P29274); assay: DRUGMATRIX: Adenosine A2A radioligand binding (ligand: […]); type: cell membranes, HEK293, Membrane; details: hek293; Not Active = under 50% inhibition at 10 µM
# Sequence of Adenosine receptor A2a (P29274 whole entry): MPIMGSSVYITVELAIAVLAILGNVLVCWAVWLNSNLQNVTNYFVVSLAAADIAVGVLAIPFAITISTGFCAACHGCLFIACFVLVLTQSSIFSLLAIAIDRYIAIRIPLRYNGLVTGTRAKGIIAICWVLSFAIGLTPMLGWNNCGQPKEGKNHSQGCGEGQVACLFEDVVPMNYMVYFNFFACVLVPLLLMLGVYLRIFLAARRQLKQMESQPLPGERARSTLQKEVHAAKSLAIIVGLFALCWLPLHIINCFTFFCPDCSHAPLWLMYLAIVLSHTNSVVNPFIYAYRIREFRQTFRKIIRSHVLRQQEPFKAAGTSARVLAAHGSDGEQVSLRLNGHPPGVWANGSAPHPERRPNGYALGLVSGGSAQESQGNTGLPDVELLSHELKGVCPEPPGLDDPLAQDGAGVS
# [6] = DRUGMATRIX: Atrial Natriuretic Factor (ANF) radioligand binding (ligand: [125I] ANF (rat)); type: cell membranes, Cavia porcellus, Dunkin-Hartley, Adrenal gland, Membrane; details: Not Active = under 50% inhibition at 10 µM
# [7] = target: T1, C-C chemokine receptor type 4 (Homo sapiens, UniProt P51679); type: cell membranes, Chem-1, Membrane; details: chem-1; note: in other assays of this panel Not Active means under 50% inhibition at 10 µM
# T1 sequence (P51679 whole entry): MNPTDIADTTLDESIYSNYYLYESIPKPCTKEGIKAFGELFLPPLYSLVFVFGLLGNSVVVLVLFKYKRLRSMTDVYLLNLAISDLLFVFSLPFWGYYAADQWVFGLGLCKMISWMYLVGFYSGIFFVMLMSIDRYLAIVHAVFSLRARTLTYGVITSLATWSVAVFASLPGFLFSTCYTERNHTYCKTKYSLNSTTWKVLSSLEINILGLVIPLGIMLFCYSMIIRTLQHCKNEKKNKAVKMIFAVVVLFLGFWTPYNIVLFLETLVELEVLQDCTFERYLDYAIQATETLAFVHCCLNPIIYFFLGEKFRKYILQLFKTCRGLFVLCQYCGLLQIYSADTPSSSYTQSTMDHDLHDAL
# Sequence of Melanocortin receptor 3 (P41968 whole entry): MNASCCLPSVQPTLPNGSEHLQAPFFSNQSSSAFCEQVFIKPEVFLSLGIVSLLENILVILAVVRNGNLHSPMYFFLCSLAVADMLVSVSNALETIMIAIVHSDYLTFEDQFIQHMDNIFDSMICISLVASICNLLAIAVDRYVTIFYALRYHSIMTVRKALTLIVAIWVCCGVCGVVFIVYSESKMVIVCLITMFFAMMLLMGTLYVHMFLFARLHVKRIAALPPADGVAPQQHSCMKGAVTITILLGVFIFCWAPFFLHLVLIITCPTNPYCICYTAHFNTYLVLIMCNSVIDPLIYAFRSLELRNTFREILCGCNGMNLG
Compound,IC50 ([1]; hek293),IC50 [2],Ki [2],IC50 [3],Ki [3],IC50 [4],IC50 [5],IC50 [6],Ki [6],IC50 [7],IC50 ([2]; read-out: IC50),Ki ([2]; read-out: Ki),IC50 ([1]; read-out: IC50),Ki ([1]; read-out: Ki),Ki ([1]; hek293),Ki [4],Ki [5],Ki [7]
Cc1ccc(S(=O)(=O)NC(=O)NN2CCCCCC2)cc1 [TOLAZAMIDE],Not Active,Not Active,Not Active,Not Active,Not Active,Not Active,Not Active,Not Active,Not Active,Not Active,–,–,–,–,–,–,–,–
Cc1ccc(Cl)c(Nc2ccccc2C(=O)O)c1Cl [MECLOFENAMIC ACID],Not Active,Not Active,Not Active,Not Active,Not Active,Not Active,Not Active,Not Active,Not Active,Not Active,–,–,–,–,–,–,–,–
CO[C@@H]1[C@@H](OC)[C@H](C)[C@@](O)(CC(=O)O)O[C@H]1[C@H](C)[C@H]1O[C@@]2(CC[C@@](C)([C@H]3CC[C@@](C)([C@@H]4O[C@@H]([C@H]5O[C@](C)(O)[C@H](C)C[C@@H]5C)C[C@@H]4O[C@@H]4C[C@H](OC)[C@@H](OC)[C@H](C)O4)O3)O2)C[C@H](O)[C@H]1C.N [MADURAMICIN],Not Active,Not Active,Not Active,Not Active,Not Active,Not Active,Not Active,Not Active,Not Active,Not Active,–,–,–,–,–,–,–,–
CCC(C)(C)C(=O)O[C@H]1C[C@@H](C)C=C2C=C[C@H](C)[C@H](CC[C@@H]3C[C@@H](O)CC(=O)O3)[C@H]21 [SIMVASTATIN],Not Active,Not Active,Not Active,Not Active,Not Active,Not Active,Not Active,Not Active,Not Active,Not Active,–,–,–,–,–,–,–,–
C#C[C@]1(O)CC[C@H]2[C@@H]3[C@H](C)CC4=C(CCC(=O)C4)[C@H]3CC[C@@]21C [TIBOLONE],Not Active,Not Active,Not Active,Not Active,Not Active,Not Active,Not Active,Not Active,Not Active,Not Active,–,–,–,–,–,–,–,–
Cc1nnc(NS(=O)(=O)c2ccc(N)cc2)s1 [SULFAMETHIZOLE],Not Active,Not Active,Not Active,Not Active,Not Active,Not Active,Not Active,Not Active,Not Active,Not Active,–,–,–,–,–,–,–,–
C[C@]12CCC(=O)C[C@@H]1CC[C@@H]1[C@@H]2CC[C@]2(C)[C@@H](O)CC[C@@H]12 [STANOLONE],Not Active,Not Active,Not Active,Not Active,Not Active,Not Active,Not Active,Not Active,Not Active,Not Active,–,–,–,–,–,–,–,–
CO[C@@]12[C@H](COC(N)=O)C3=C(C(=O)C(C)=C(N)C3=O)N1C[C@@H]1N[C@@H]12 [MITOMYCIN],Not Active,Not Active,Not Active,Not Active,Not Active,Not Active,Not Active,Not Active,Not Active,Not Active,–,–,–,–,–,–,–,–
Cc1[nH]c(=O)c(C#N)cc1-c1ccncc1 [MILRINONE],Not Active,Not Active,Not Active,Not Active,Not Active,Not Active,Not Active,Not Active,Not Active,Not Active,–,–,–,–,–,–,–,–
CC(Cl)(Cl)Cl [TRICHLOROETHANE],Not Active,Not Active,Not Active,Not Active,Not Active,Not Active,Not Active,Not Active,Not Active,Not Active,–,–,–,–,–,–,–,–
CC[C@H](C)C(=O)O[C@H]1CCC=C2C=C[C@H](C)[C@H](CC[C@@H]3C[C@@H](O)CC(=O)O3)[C@H]21 [MEVASTATIN],Not Active,Not Active,Not Active,Not Active,Not Active,Not Active,Not Active,Not Active,Not Active,Not Active,–,–,–,–,–,–,–,–
CC(=O)O[C@]1(C(C)=O)CC[C@H]2[C@@H]3C[C@H](C)C4=CC(=O)CC[C@]4(C)[C@H]3CC[C@@]21C [MEDROXYPROGESTERONE ACETATE],Not Active,Not Active,Not Active,Not Active,Not Active,Not Active,Not Active,Not Active,Not Active,Not Active,–,–,–,–,–,–,–,–
CC[C@@]1(O)C(=O)OCc2c1cc1n(c2=O)Cc2cc3c(CN(C)C)c(O)ccc3nc2-1 [TOPOTECAN],Not Active,Not Active,Not Active,Not Active,Not Active,Not Active,Not Active,Not Active,Not Active,Not Active,–,–,–,–,–,–,–,–
CC#C[C@]1(O)CC[C@H]2[C@@H]3CCC4=CC(=O)CCC4=C3[C@@H](c3ccc(N(C)C)cc3)C[C@@]21C [MIFEPRISTONE],Not Active,Not Active,Not Active,Not Active,Not Active,Not Active,Not Active,Not Active,Not Active,Not Active,–,–,–,–,–,–,–,–
Cc1cnc(NC(=O)C2=C(O)c3ccccc3S(=O)(=O)N2C)s1 [MELOXICAM],Not Active,Not Active,Not Active,Not Active,Not Active,Not Active,Not Active,Not Active,Not Active,Not Active,–,–,–,–,–,–,–,–
O=[As][O-].[Na+] [SODIUM ARSENITE],Not Active,Not Active,Not Active,Not Active,Not Active,Not Active,Not Active,Not Active,Not Active,Not Active,–,–,–,–,–,–,–,–
Cc1cccc(C)c1NC(=O)C(C)N (stereo not given) [TOCAINIDE],Not Active,Not Active,Not Active,Not Active,Not Active,Not Active,Not Active,Not Active,Not Active,Not Active,–,–,–,–,–,–,–,–
COC(=O)Nc1nc2ccc(C(=O)c3ccccc3)cc2[nH]1 [MEBENDAZOLE],Not Active,Not Active,Not Active,Not Active,Not Active,Not Active,Not Active,Not Active,Not Active,Not Active,–,–,–,–,–,–,–,–
CCOC(=O)C1=C(C)NC(C)=C(C(=O)OCC)C1c1ccccc1/C=C/C(=O)OC(C)(C)C [LACIDIPINE],Not Active,–,–,Not Active,Not Active,Not Active,Not Active,Not Active,Not Active,Not Active,0.4 nM,0.257 nM,–,–,–,–,–,–
CC[C@H](C)[C@@H](CO[C@@H](Cc1ccccc1)C(=O)N[C@@H](CCS(C)(=O)=O)C(=O)OC(C)C)NC[C@@H](N)CS,–,–,–,Not Active,Not Active,Not Active,Not Active,Not Active,Not Active,Not Active,4500 nM,2890 nM,3390 nM,2960 nM,–,–,–,–
O=C(c1ccccc1)c1ccc2n1CCC2C(=O)O (stereo not given) [KETOROLAC],Not Active,Not Active,Not Active,Not Active,Not Active,Not Active,Not Active,Not Active,Not Active,Not Active,–,–,–,–,–,–,–,–
O=C(O)c1cc(/N=N/c2ccc(S(=O)(=O)Nc3ccccn3)cc2)ccc1O [SULFASALAZINE],Not Active,Not Active,Not Active,Not Active,Not Active,Not Active,Not Active,Not Active,Not Active,Not Active,–,–,–,–,–,–,–,–
CC1(C)[C@H](C(=O)O)N2C(=O)C[C@H]2S1(=O)=O [SULBACTAM],Not Active,Not Active,Not Active,Not Active,Not Active,Not Active,Not Active,Not Active,Not Active,Not Active,–,–,–,–,–,–,–,–
C1CCN2C[C@@H]3C[C@@H](CN4CCCC[C@@H]34)[C@H]2C1 [SPARTEINE],Not Active,Not Active,Not Active,Not Active,Not Active,Not Active,Not Active,Not Active,Not Active,Not Active,–,–,–,–,–,–,–,–
LEAD(IV) ACETATE,Not Active,Not Active,Not Active,Not Active,Not Active,Not Active,Not Active,Not Active,Not Active,Not Active,–,–,–,–,Not Active,Not Active,Not Active,Not Active
